According to patent US11324832B2, “Tripartite modulators of endosomal G protein-coupled receptors” (Endosome Therapeutics, Inc., priority 2015, dated 2022):
Where a SMILES comes first, the peptide text is derived from it. [ ]: non-standard residue; d: D form. The star is where a group is joined. X1 = CC(C)CCC[C@@H](C)[C@H]1CC[C@H]2[C@@H]3CC[C@H]4C[C@@H](O*)CC[C@]4(C)[C@H]3CC[C@]12C; PEG4 = NCCOCCOCCOCCOCCC(=O)O; PEG3 = NCCOCCOCCOCCC(=O)O

Columns and labels:
[1] = system: NK1R-positive neurons in lamina I of the dorsal horn; assay: Cell-attached patch clamp recordings in rat spinal cord slices; type: cell-based
Procedure: To evaluate whether NK1R endosomal signaling mediates this sustained activation, cell-attached patch clamp recordings were made from NKiR-positive neurons in lamina I of the dorsal horn in slices of rat spinal cord. […] These findings support a role for NK1R endocytosis in persistent neuronal excitation.
Parasagittal slices (340-400 μm) were prepared using a vibratome from the lumbar region of the rat spinal cord in ice-cold sucrose-based artificial CSF (sACSF) (mM: 100 sucrose, 63 NaCl, 2.5 KCl, 1.2 NaH2PO4, 1.2 MgCl2, 25 glucose, 25 NaHCO3; 95% O2/5% CO2). Slices were transferred to N-Methyl-D-Glucamine (NMDG)-based recovery ACSF (rACSF) (mM: 93 NMDG, 93 HCl, 2.5 KCl, 1.2 NaH2PO4, 30 NaHCO3, 20 HEPES, 25 glucose, 5 Na ascorbate, 2 thiourea, 3 Na pyruvate, 10 MgSO4, 0.5 CaCl2; 95% O2/5% CO2, 15 min, 34° C.). Slices were transferred to normal ACSF (mM: 125 NaCl, 2.5 KCl, 1.25 NaH2PO4, 1.2 MgCl2, 2.5 CaCl2, 25 glucose, 11 NaHCO3; 95% O2/5% CO2) containing 10 μM MK-801 (45 min, 34° C.), then maintained at RT.
Slices of rat spinal cord were transferred to a recording chamber and superfused with normal ACSF (2 ml·min^−1, 36° C.). […] PS2 was not soluble in the low concentrations of DMSO required for electrophysiology. Large, NKiR-positive, presumed nociceptive lamina I neurons were visually identified as described (Imlach, W. L., et al., Molecular Pharmacology, 2015, 88, 460-428). Spontaneous currents were recorded in cell-attached configuration (Multiclamp 700B, Molecular Devices, Sunnyvale, Calif.), sampled at 10 kHz, high pass filtered at 1 Hz, and capacitatively coupled action potential events were analyzed using Axograph X, V 1.4.4 (Axograph). Patch electrodes (resistance 2.5-3.5 MQ) contained KMES-based internal solution (mM: 105 KMES, 20 NaCl, 5 HEPES, 10 BAPTA, 1.5 MgCl2, 4 MgATP, 0.4 NaGTP, 0.1% biocytin; 285-295 mosmol·l^−1) to facilitate subsequent recordings of action potential properties in whole-cell configuration. Recordings were made in the presence of CNQX (6-cyano-7-nitroquinoxaline-2,3-dione) (10 μM; AMPA/kainate receptor antagonist), picrotoxin (100 μM; GABAA receptor antagonist), strychnine (0.5 μM; glycine and acetylcholine receptor antagonist), and AP5 ((2R)-amino-5-phosphonovaleric acid; (2R)-amino-5-phosphonopentanoate) (100 μM; NMDA receptor antagonist) to minimize presynaptic influences on action potential properties. […] Recordings were sampled at 10 kHz and filtered with a high pass filter at 1 Hz and firing rate was measured in two-minute interval bins. At the end of each cell-attached recording, whole-cell recordings were made in current-clamp mode to confirm retention of normal action potential firing. Data were only included in the analysis if cells had action potential amplitudes that were ≥50 mV above threshold to ensure viable neurons were included. Cells were filled with biocytin and sections were processed to confirm NK1R expression by immunofluorescence. […] The firing time was determined as the duration of the response to last action potential. To assess synaptic transmission, whole-cell configuration recordings were made under control conditions or after exposure to Dy4 or Dy4 inact; a bipolar stimulating electrode was placed at the dorsal root entry zone, and electrically-evoked excitatory postsynaptic currents recorded as described (Imlach, W. L., et al., Molecular Pharmacology, 2015, 88, 460-428).

[2] = system: motor coordination of mice; assay: Rotarod; type: in vivo, mouse; details: i.t. 50 μM
Procedure: Mice were acclimatized by 3 trials on 2 successive days before experiments. Mice were trained to remain on the rotarod for three consecutive periods. On the experimental day, three baseline time trials (cut-off 120 s) were recorded. […] After 30 min, mice were placed on the rotarod with accelerating velocity for up to 120 s. Times were recorded in 3 successive trials, and latency time to fall was determined at 30, 90 and 120 min

[3] = system: SP-IR and CGRP-IR release; assay: Neuropeptide release from mouse dorsal spinal cord; details: 30 μM; capsaicin 0.3 μM, 10 min
Procedure: Slices (0.4 mm) of mouse dorsal spinal cord (combined cervical, thoracic, lumbar-sacral segments) were superfused (0.4 ml·min^−1) with Krebs' solution (mM: NaCl 119, NaHCO3 25, KH2PO4 1.2, MgSO4 1.5, CaCl2 2.5, KCl 4.7, D-glucose 11 mM; […], 37° C.) containing 0.1% BSA, 1 μM phosphoramidon and 1 μM captopril. […] Tissues were then superfused with capsaicin (0.3 μM, 10 min) in the presence of inhibitors or controls. Superfusate (10 min collections, 4 ml) was collected before, during and after capsaicin stimulation, and analyzed for SP-IR and CGRP-IR (Bertin Pharma). […] Detection limits of the assays were 2 pg·ml^−1 for SP-IR and 5 pg·ml^−1 for CGRP-IR. Results are expressed as fmol·g^−1·20 min^−1.

[4] = 30 μM, preincubated 10 min, SP 1 μM, 2 min
[5] = 1 μM for 60 min, washed, 60 min antagonist-free, then SP

Row | Structure (SMILES) | effect on initial SP-evoked excitation [1, 4] | effect on sustained action potential discharge after SP removal [1, 4] | effect on glutaminergic primary afferent synaptic transmission and synaptic rundown ([1]; slices of rat spinal cord) | effect on rotarod latency [2] | effect on basal or capsaicin-stimulated release of SP-IR and CGRP-IR [3] | effect on initial SP-evoked excitation [1, 5] | effect on sustained action potential discharge after SP removal [1, 5] | SP-evoked firing rate, response at 2 min ([1]; 1 μM for 60 min, washed, 60 min antagonist-free, then SP, P>0.05) [events. 2 min^−1]
1 | O=C(N/N=C/c1cc(O)c(O)cc1O)c1cc2ccccc2cc1O [Dy4] | did not affect the initial excitation | prevented the sustained action potential discharge | did not affect | did not affect | did not affect |  |  | 
2 | O=C1NC(=NS(=O)(=O)c2cccc3ccccc23)S/C1=C\c1ccc(Br)cc1 [PS2] |  |  |  | did not affect | did not affect |  |  | 
3 | CC(=O)N[C@@H](CC(=O)O[C@H]1CC[C@@]2(C)[C@@H](CC[C@@H]3[C@@H]2CC[C@]2(C)[C@@H]([C@H](C)CCCC(C)C)CC[C@@H]32)C1)C(=O)NCCOCCOCCOCCOCCC(=O)NCCOCCOCCOCCC(=O)NCCOCCOCCOCCOCCC(=O)N[C@H](CCCNC(=N)N)C(=O)N1CCC[C@H]1C(=O)N[C@@H](CCCCN)C(=O)N1CCC[C@H]1C(=O)N[C@@H](CCC(N)=O)C(=O)N[C@@H](CCC(N)=O)C(=O)N[C@H](Cc1c[nH]c2ccccc12)C(=O)N[C@@H](Cc1ccccc1)C(=O)N[C@H](Cc1c[nH]c2ccccc12)C(=O)N[C@@H](CC(C)C)C(=O)N[C@@H](CC(C)C)C(N)=O [Compound 1] (Ac-D(X1)[PEG4][PEG3][PEG4][dR]PKPQQ[dW]F[dW]LL-NH2) |  |  |  |  |  | did not suppress the initial excitation | prevented the action potential discharge | 196.6±81.6
